Measured values published in US7368424B2, “Acylated nonadepsipeptides” (AiCuris GmbH & Co. KG, priority 2003, dated 2008).
Values after ≈ are worked out from the molar mass of the structure shown. Like-named read-outs stand apart in the source and are kept apart here. *1 amine or outer side, *2 acyl side, *3 side chain or, on linkers, in order; H or OH if unused. Where a SMILES comes first, the peptide text is derived from it. Bridges are numbered along the chain shown (N, C = ends). [ ]: non-standard residue; d: D form. The star is where a group is joined. ξ: configuration not given here. Phe(3R-OH) = O=C([C@@H](N[*:1])[C@H](O[*:3])c1ccccc1)[*:2]; Asn(3S-OH) = NC(=O)[C@@H](O)[C@H](N)C(=O)O; Leu(3R-OH) = CC(C)[C@@H](O)[C@H](N)C(=O)O; Ala(SiMe3) = C[Si](C)(C)C[C@H](N)C(=O)O; d(tBuAla) = CC(C)(C)C[C@@H](N)C(=O)O; dPhe(2-F) = N[C@H](Cc1ccccc1F)C(=O)O; tBuAla = CC(C)(C)C[C@H](N)C(=O)O; 3Pal = N[C@@H](Cc1cccnc1)C(=O)O; aThr = C[C@H](O)[C@H](N)C(=O)O; ξIle = CC[C@H](C)C(N)C(=O)O; dOrn = NCCC[C@@H](N)C(=O)O; Cbz = O=C(OCc1ccccc1)*; OtBu = CC(C)(C)O*

How the values were obtained:
[1] = test system: Staphylococcus aureus 133; assay type: cell-based
Procedure: (§1) Determination of the Minimum Inhibitory Concentration (MIC):
(§2) The MIC is determined in the liquid dilution test in accordance with the NCCLS guidelines. Overnight cultures of Staphylococcus aureus 133, Enterococcus faecalis 27159, E. faecium 4147 and Streptococcus pneumoniae G9a are incubated with the desired test substances in a 1:2 dilution series. The MIC determination is carried out with a cell count of 10^5 microbes per ml in Isosensitest medium (Difco, Irvine/USA), with the exception of S. pneumoniae which is tested in BHI broth (Difco, Irvine/USA) with 10% bovine serum with a cell count of 10^6 microbes per ml. The cultures are incubated at 37° C. for 18-24 hours, S. pneumoniae in the presence of 10% CO2.
(§3) The MIC is defined as the lowest concentration of each substance at which visible bacterial growth no longer occurs. The MIC values are reported in μg/ml.

[2] = test system: Streptococcus pneumoniae G9a; assay type: cell-based
Procedure: as §1, §2, §3

E. faecium L4001 = assay type: cell-based, Enterococcus faecium
E. faecalis ICB 27159 = assay type: cell-based, Enterococcus faecalis
Procedure: as §1, §2, §3

[3] = Isosensitest medium, 10^5 microbes per ml, 37° C., 18-24 hours

Row | Compound | MIC S. aureus 133 [1]; 133 [µg/mL] | MIC S. pneumoniae ([2]; G9a) [µg/mL] | MIC E. faecium L4001 (E. faecium L4001; L4001) [µg/mL] | MIC E. faecalis ICB 27159 (E. faecalis ICB 27159; ICB 27159) [µg/mL] | MIC S. aureus 133 [1, 3] [µg/mL] | MIC S. pneumoniae ([2]; BHI broth with 10% bovine serum, 10^6 microbes per ml, 10% CO2, 37° C., 18-24 hours) [µg/mL] | MIC E. faecium L4001 (E. faecium L4001; [3]) [µg/mL] | MIC E. faecalis ICB 27159 (E. faecalis ICB 27159; [3]) [µg/mL]
1 | CC[C@H](C)[C@@H]1NC(=O)[C@@H](CCCNC(=N)N)NC(=O)[C@H](CC(C)C)NC(=O)[C@H]([C@H](O)C(C)C)NC(=O)[C@@H](NC(=O)[C@H](CC(C)(C)C)NC(=O)[C@H](N)CC(C)C)[C@@H](c2ccccc2)OC(=O)[C@H](CO)NC(=O)[C@H]([C@H](O)C(N)=O)NC(=O)CNC(=O)[C@H]([C@H](C)O)NC1=O [Example 3, D-leucyl-N^1-{(3S,6S,12S,15S,18R,21S,24S,27S,-28R)-6-[(1S)-2-amino-1-hydroxy-2-oxoethyl]-18-(3-{[amino(imino)methyl]amino}propyl)-12-[(1S)-1-hydroxyethyl]-3-(hydroxymethyl)-24-[(1R)-1-hydroxy-2-methylpropyl]-21-isobutyl-15-[(1S)-1-methylpropyl]-2,5,8,11,14,17,20,23,26-nonaoxo-28-phenyl-1-oxa-4,7,10,13,16,19,22,25-octaazacyclooctacosan-27-yl}-3-tert-butyl-L-alaninamide bistrifluoroacetate] (H-[dL][tBuAla][Phe(3R-OH)][Leu(3R-OH)]L[dR]I[aThr]G[Asn(3S-OH)]S; ester 3-C) | 0.125 (≈ 0.0969 µM) | 0.031 (≈ 0.024 µM) | 0.25 (≈ 0.194 µM) | 0.25 (≈ 0.194 µM) |  |  |  | 
2 | CC[C@H](C)[C@@H]1NC(=O)[C@@H](CCCNC(=N)N)NC(=O)[C@H](CC(C)C)NC(=O)[C@H]([C@H](O)C(C)C)NC(=O)[C@@H](NC(=O)[C@H](Cc2ccccc2)NC(=O)[C@H](N)CC(C)C)[C@@H](c2ccccc2)OC(=O)[C@H](CO)NC(=O)[C@H]([C@H](O)C(N)=O)NC(=O)CNC(=O)[C@H]([C@H](C)O)NC1=O.O=C(O)C(F)(F)F.O=C(O)C(F)(F)F [Example 74, D-Leucyl-L-phenylalanyl-de(1-D-leucyl-2-L-leucyl)lysobactin bistrifluoroacetate] (H-[dL]F[Phe(3R-OH)][Leu(3R-OH)]L[dR]I[aThr]G[Asn(3S-OH)]S; ester 3-C) | 0.125 | 0.063 | 0.5 | 1 |  |  |  | 
3 | CC[C@H](C)[C@@H]1NC(=O)[C@@H](CCCNC(=N)N)NC(=O)[C@H](CC(C)C)NC(=O)[C@H]([C@H](O)C(C)C)NC(=O)[C@@H](NC(=O)[C@H](Cc2cccnc2)NC(=O)[C@H](N)CC(C)(C)C)[C@@H](c2ccccc2)OC(=O)[C@H](CO)NC(=O)[C@H]([C@H](O)C(N)=O)NC(=O)CNC(=O)[C@H]([C@H](C)O)NC1=O [Example 69, 3-tert-Butyl-D-alanyl-3-(3-pyridyl)-L-alanyl-de(1-D-leucyl-2-L-leucyl)lysobactin tristrifluoroacetate] (H-[d(tBuAla)][3Pal][Phe(3R-OH)][Leu(3R-OH)]L[dR]I[aThr]G[Asn(3S-OH)]S; ester 3-C) | 0.5 (≈ 0.377 µM) | 0.5 (≈ 0.377 µM) | 1 (≈ 0.754 µM) | 1 (≈ 0.754 µM) |  |  |  | 
4 | CC[C@H](C)[C@@H]1NC(=O)[C@@H](CCCNC(=N)N)NC(=O)[C@H](CC(C)C)NC(=O)[C@H]([C@H](O)C(C)C)NC(=O)[C@@H](NC(=O)[C@H](CC(C)C)NC(=O)[C@H](N)CCCNC(=O)OCc2ccccc2)[C@@H](c2ccccc2)OC(=O)[C@H](CO)NC(=O)[C@H]([C@H](O)C(N)=O)NC(=O)CNC(=O)[C@H]([C@H](C)O)NC1=O [Example 62, N^6-[(Benzyloxy)carbonyl]-D-ornithyl-de(1-D-leucyl)lysobactin bistrifluoroacetate] (H-[dOrn](Cbz)L[Phe(3R-OH)][Leu(3R-OH)]L[dR]I[aThr]G[Asn(3S-OH)]S; ester 3-C) | 0.25 (≈ 0.177 µM) | 0.5 (≈ 0.354 µM) | 0.5 (≈ 0.354 µM) | 1 (≈ 0.708 µM) |  |  |  | 
5 | CC[C@H](C)[C@@H]1NC(=O)[C@@H](CCCNC(=N)N)NC(=O)[C@H](CC(C)C)NC(=O)[C@H]([C@H](O)C(C)C)NC(=O)[C@@H](NC(=O)[C@H](CC(C)C)NC(=O)[C@@H](N)C[Si](C)(C)C)[C@@H](c2ccccc2)OC(=O)[C@H](CO)NC(=O)[C@H]([C@H](O)C(N)=O)NC(=O)CNC(=O)[C@H]([C@H](C)O)NC1=O [Example 30, [3-(Trimethylsilyl)-L-alanyl]-de(1-D-leucyl)lysobactin bistrifluoroacetate] (H-[Ala(SiMe3)]L[Phe(3R-OH)][Leu(3R-OH)]L[dR]I[aThr]G[Asn(3S-OH)]S; ester 3-C) | 0.25 (≈ 0.191 µM) | 0.25 (≈ 0.191 µM) | 0.5 (≈ 0.383 µM) | 1 (≈ 0.765 µM) |  |  |  | 
6 | CC[C@H](C)[C@@H]1NC(=O)[C@@H](CCCNC(=N)N)NC(=O)[C@H](CC(C)C)NC(=O)[C@H]([C@H](O)C(C)C)NC(=O)[C@@H](NC(=O)[C@H](CC(C)(C)C)NC(=O)[C@H](N)CC(C)(C)C)[C@@H](c2ccccc2)OC(=O)[C@H](CO)NC(=O)[C@H]([C@H](O)C(N)=O)NC(=O)CNC(=O)[C@H]([C@H](C)O)NC1=O.O=C(O)C(F)(F)F.O=C(O)C(F)(F)F [Example 68] (H-[d(tBuAla)][tBuAla][Phe(3R-OH)][Leu(3R-OH)]L[dR]I[aThr]G[Asn(3S-OH)]S; ester 3-C) | 0.125 | 0.031 | 0.5 | 0.5 |  |  |  | 
7 | CC[C@H](C)[C@@H]1NC(=O)[C@@H](CCCNC(=N)N)NC(=O)[C@H](CC(C)C)NC(=O)[C@H]([C@H](O)C(C)C)NC(=O)[C@@H](NC(=O)[C@H](CC(C)C)NC(=O)[C@H](N)Cc2ccccc2)[C@@H](c2ccccc2)OC(=O)[C@H](CO)NC(=O)[C@H]([C@H](O)C(N)=O)NC(=O)CNC(=O)[C@H]([C@H](C)O)NC1=O [Example 38, D-Phenylalanyl-de(1-D-leucyl)lysobactin bistrifluoracetate] (H-[dF]L[Phe(3R-OH)][Leu(3R-OH)]L[dR]I[aThr]G[Asn(3S-OH)]S; ester 3-C) | 0.125 (≈ 0.0954 µM) | 0.063 (≈ 0.0481 µM) | 0.5 (≈ 0.382 µM) | 1 (≈ 0.763 µM) |  |  |  | 
8 | CC[C@H](C)C1NC(=O)[C@@H](CCCNC(=N)N)NC(=O)[C@H](CC(C)C)NC(=O)[C@H]([C@H](O)C(C)C)NC(=O)[C@@H](NC(=O)[C@H](CC(=O)OC(C)(C)C)NC(=O)[C@H](N)CC(C)(C)C)[C@@H](c2ccccc2)OC(=O)[C@H](CO)NC(=O)[C@H]([C@H](O)C(N)=O)NC(=O)CNC(=O)[C@H]([C@H](C)O)NC1=O.O=C(O)C(F)(F)F.O=C(O)C(F)(F)F (stereo partly drawn) [Example 101, (2S)-2-[(3-tert-Butyl-D-alanyl)amino]-4-tert-butoxy-4-oxobutanoyl-de(1-D-leucyl-2-L-leucyl)lysobactin bistri-fluoroacetate] (H-[d(tBuAla)]D(OtBu)[Phe(3R-OH)][Leu(3R-OH)]L[dR][ξIle][aThr]G[Asn(3S-OH)]S; ester 3-C) |  |  |  |  | 1 | 0.5 | 1 | 1
9 | CC[C@H](C)[C@@H]1NC(=O)[C@@H](CCCNC(=N)N)NC(=O)[C@H](CC(C)C)NC(=O)[C@H]([C@H](O)C(C)C)NC(=O)[C@@H](NC(=O)[C@H](CC(C)C)NC(=O)[C@H](N)Cc2ccccc2F)[C@@H](c2ccccc2)OC(=O)[C@H](CO)NC(=O)[C@H]([C@H](O)C(N)=O)NC(=O)CNC(=O)[C@H]([C@H](C)O)NC1=O [Example 23, (2-Fluoro-D-phenylalanyl)-de(1-D-leucyl)lysobactin bistrifluoroacetate] (H-[dPhe(2-F)]L[Phe(3R-OH)][Leu(3R-OH)]L[dR]I[aThr]G[Asn(3S-OH)]S; ester 3-C) | 0.125 (≈ 0.0941 µM) | 0.125 (≈ 0.0941 µM) | 0.5 (≈ 0.376 µM) | 1 (≈ 0.753 µM) |  |  |  | 
